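Cells were grown in 96-well plates and exposed to each compound for 48 hours at five concentrations; endpoints were interpolated linearly between bracketing concentrations, or set to the highest concentration if not reached. At the GI50, growth is halved.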 Activity calls are given as the source filed them. No stated cut-off is given here; in the data, active = GI50 up to about 1.1 µM and inactive = higher.
Experiments:
Assay in all cases: NCI tumour cell line growth inhibition, 48 h
786-0 = test system: 786-0
A498 = test system: A498
A549 = test system: A549
ACHN = test system: ACHN
BT-549 = test system: BT-549
CAKI-1 = test system: CAKI-1
CCRF-CEM = test system: CCRF-CEM
COLO 205 = test system: COLO 205
DLD-1 = test system: DLD-1
DMS-114 = test system: DMS-114
DMS-273 = test system: DMS-273
DU-145 = test system: DU-145
EKVX = test system: EKVX
HCC 2998 = test system: HCC 2998
HCT-116 = test system: HCT-116
HCT-15 = test system: HCT-15
HL-60 = test system: HL-60
HOP-18 = test system: HOP-18
HOP-62 = test system: HOP-62
HOP-92 = test system: HOP-92
HT-29 = test system: HT-29
Hs-578T = test system: Hs-578T
IGROV-1 = test system: IGROV-1
K562 = test system: K562
KM-20L2 = test system: KM-20L2
KM12 = test system: KM12
LOX IMVI = test system: LOX IMVI
LXFL 529 = test system: LXFL 529
M14 = test system: M14
M19-MEL = test system: M19-MEL
MCF7 = test system: MCF7
MDA-MB-231 = test system: MDA-MB-231
MDA-MB-435 = test system: MDA-MB-435
MDA-N = test system: MDA-N
MOLT-4 = test system: MOLT-4
Malme-3M = test system: Malme-3M
NCI-H226 = test system: NCI-H226
NCI-H23 = test system: NCI-H23
NCI-H460 = test system: NCI-H460
NCI-H522 = test system: NCI-H522
NCI/ADR-RES = test system: NCI/ADR-RES
OVCAR-3 = test system: OVCAR-3
OVCAR-4 = test system: OVCAR-4
OVCAR-5 = test system: OVCAR-5
OVCAR-8 = test system: OVCAR-8
PC-3 = test system: PC-3
RPMI-8226 = test system: RPMI-8226
RXF 393 = test system: RXF 393
RXF 631 = test system: RXF 631
SF-268 = test system: SF-268
SF-295 = test system: SF-295
SF-539 = test system: SF-539
SK-MEL-28 = test system: SK-MEL-28
SK-MEL-2 = test system: SK-MEL-2
SK-MEL-5 = test system: SK-MEL-5
SK-OV-3 = test system: SK-OV-3
SN12C = test system: SN12C
SNB-19 = test system: SNB-19
SNB-75 = test system: SNB-75
SNB-78 = test system: SNB-78
SR = test system: SR
SW-620 = test system: SW-620
TK-10 = test system: TK-10
U-251 = test system: U-251
UACC-257 = test system: UACC-257
UACC-62 = test system: UACC-62
UO-31 = test system: UO-31
XF498 = test system: XF498

Measured: GI50

CCOC(=O)Nc1nc2cc(Cn3cccc3)ccc2[nH]1
inactive: A498 1.7 µM | A549 1.22 µM | ACHN 5.78 µM | BT-549 > 20.2 µM | COLO 205 1.84 µM | DLD-1 3.93 µM | DMS-114 4.9 µM | DMS-273 3.66 µM | DU-145 1.78 µM | EKVX 27.7 µM | HCC 2998 2.47 µM | HOP-18 4.52 µM | HOP-62 1.36 µM | HOP-92 32.2 µM | IGROV-1 1.85 µM | KM-20L2 3.25 µM | LOX IMVI 2.55 µM | LXFL 529 4.16 µM | M14 1.65 µM | M19-MEL 6.37 µM | MCF7 1.7 µM | MDA-MB-231 1.57 µM | NCI-H226 15.8 µM | NCI-H23 4.82 µM | OVCAR-3 1.13 µM | OVCAR-4 16.2 µM | OVCAR-5 16 µM | OVCAR-8 2.39 µM | RXF 393 4.03 µM | RXF 631 > 22.3 µM | SF-268 8.73 µM | SK-MEL-28 4.89 µM | SK-MEL-2 2.01 µM | SK-OV-3 1.5 µM | SN12C 2.33 µM | SNB-19 1.83 µM | SNB-78 8.99 µM | TK-10 19.5 µM | U-251 1.2 µM | UACC-257 3.82 µM | UO-31 14.4 µM | XF498 3.5 µM
0.986 µM: HCT-15
active: 786-0 1.09 µM | CAKI-1 0.873 µM | CCRF-CEM 0.581 µM | HCT-116 1.02 µM | HL-60 0.27 µM | HT-29 0.65 µM | Hs-578T 0.857 µM | K562 0.359 µM | KM12 0.853 µM | MDA-MB-435 0.123 µM | MDA-N 0.157 µM | MOLT-4 0.64 µM | Malme-3M 1.09 µM | NCI-H460 0.802 µM | NCI-H522 0.533 µM | NCI/ADR-RES 0.387 µM | PC-3 0.399 µM | RPMI-8226 0.925 µM | SF-295 0.807 µM | SF-539 0.865 µM | SK-MEL-5 0.51 µM | SNB-75 0.356 µM | SR 0.735 µM | SW-620 0.564 µM | UACC-62 0.828 µM

Cc1c(Cl)cccc1NC(=O)c1cccc([N+](=O)[O-])c1O
14.4 µM: HCT-15
inactive: 786-0 20.5 µM | A498 14.2 µM | A549 11.4 µM | ACHN 7.83 µM | CAKI-1 9.59 µM | CCRF-CEM 4.2 µM | COLO 205 14.1 µM | DLD-1 21.4 µM | DMS-114 11.5 µM | DMS-273 12.4 µM | EKVX 16 µM | HCC 2998 7.18 µM | HCT-116 13.7 µM | HL-60 8.39 µM | HOP-18 2.7 µM | HOP-62 9.29 µM | HOP-92 2.37 µM | HT-29 12.9 µM | IGROV-1 5.83 µM | K562 17.3 µM | KM-20L2 13.1 µM | KM12 21.4 µM | LOX IMVI 5.78 µM | LXFL 529 11.3 µM | M14 16.8 µM | M19-MEL 13.8 µM | MOLT-4 5.82 µM | Malme-3M 6.25 µM | NCI-H226 15.5 µM | NCI-H23 6.87 µM | NCI-H460 8.81 µM | NCI-H522 6.44 µM | OVCAR-3 5.71 µM | OVCAR-4 9.79 µM | OVCAR-5 > 43 µM | OVCAR-8 21 µM | RPMI-8226 3.24 µM | RXF 393 4.29 µM | RXF 631 13.8 µM | SF-268 20.3 µM | SF-295 16.4 µM | SF-539 15.7 µM | SK-MEL-28 9.68 µM | SK-MEL-2 10.7 µM | SK-MEL-5 3.26 µM | SK-OV-3 25.6 µM | SN12C 14 µM | SNB-19 8.55 µM | SNB-75 17.5 µM | SNB-78 34.1 µM | SR 22.3 µM | SW-620 28.2 µM | TK-10 41.8 µM | U-251 9.44 µM | UACC-257 8.51 µM | UACC-62 2.18 µM | UO-31 10.5 µM | XF498 16.3 µM

From ChEMBL document CHEMBL1201862, “PubChem BioAssay data set” (2004)
